Test results: patent publication US7662825B2, “N-pyrazinyl-phenylsulphonamides and their use in the treatment of chemokine mediated diseases” (AstraZeneca AB, priority 2002, dated 2010)

melting point [°C]	Compound
150 to 152	COc1nc(C)cnc1NS(=O)(=O)c1ccccc1F [Example 13, N-(3-Methoxy-5-methyl-2-pyrazinyl)-2-fluorobenzenesulphonamide]
127 to 129	Cc1cnc(NS(=O)(=O)c2cccc(Cl)c2Cl)c(OCc2ccco2)n1 [Example 20, 2,3-Dichloro-N-[3-(2-furanylmethoxy)-5-methyl-2-pyrazinyl]benzenesulphonamide]
155 to 156	Cc1cnc(NS(=O)(=O)c2cccc(Cl)c2Cl)c(OCc2cc(C)on2)n1 [Example 21, 2,3-Dichloro-N-[5-methyl-3-(5-methyl-3-isoxazolylmethoxy)-2-pyrazinyl]benzenesulphonamide]
164 to 165	Cc1cccc(COc2nc(C)cnc2NS(=O)(=O)c2cccc(Cl)c2Cl)n1 [Example 23, 2,3-Dichloro-N-[5-methyl-3-(6-methyl-2-pyridinylmethoxy)-2-pyrazinyl]benzenesulphonamide]
160 to 161	Cc1cnc(NS(=O)(=O)c2cccc(Cl)c2Cl)c(OCc2cccnc2)n1 [Example 24, 2,3-Dichloro-N-[5-methyl-3-(3-pyridinylmethoxy)-2-pyrazinyl]benzenesulphonamide]
183 to 184	Cc1cnc(NS(=O)(=O)c2cccc(Cl)c2Cl)c(OCc2ccncc2)n1 [Example 25, 2,3-Dichloro-N-[5-methyl-3-(4-pyridinylmethoxy)-2-pyrazinyl]benzenesulphonamide]
137 to 138	Cc1cnc(NS(=O)(=O)c2cccc(Cl)c2Cl)c(OCc2ncccc2C)n1 [Example 26, 2,3-Dichloro-N-[5-methyl-3-(3-methyl-2-pyridinylmethoxy)-2-pyrazinyl]benzenesulphonamide]
119 to 124	Cc1cnc(NS(=O)(=O)c2cccc(Cl)c2Cl)c(OCc2cccnn2)n1 [Example 27, 2,3-Dichloro-N-[5-methyl-3-(3-pyridazinylmethoxy)-2-pyrazinyl]benzenesulphonamide]
167 to 168	O=S(=O)(Nc1nccnc1OCc1ccccn1)c1cccc(Cl)c1Cl [Example 28, 2,3-Dichloro-N-[3-(2-pyridinylmethoxy)-2-pyrazinyl]benzenesulphonamide]
138 to 139	O=S(=O)(Nc1nccnc1OCc1cccnc1)c1cccc(Cl)c1Cl [Example 29, 2,3-Dichloro-N-[3-(3-pyridinylmethoxy)-2-pyrazinyl]benzenesulphonamide]
183 to 184	COc1nccnc1NS(=O)(=O)c1cccc(Cl)c1Cl [Example 30, 2,3-Dichloro-N-(3-methoxy-2-pyrazinyl)benzenesulphonamide]
207 to 209	O=S(=O)(Nc1ncc(Br)nc1OCc1cnccn1)c1cccc(Cl)c1Cl [Example 31, N-[5-Bromo-3-(2-pyrazinylmethoxy)-2-pyrazinyl]-2,3-dichlorobenzenesulphonamide]
169 to 170	Cn1cc(COc2nc(Br)cnc2NS(=O)(=O)c2cccc(Cl)c2Cl)ccc1=O [Example 32, N-[5-Bromo-3-(1-methyl-6-oxo-1,6-dihydro-3-pyridinylmethoxy)-2-pyrazinyl]-2,3-dichlorobenzenesulphonamide]
115 to 120	O=S(=O)(Nc1ncc(Br)nc1OCc1cccnn1)c1cccc(Cl)c1Cl [Example 33]
204 to 206	O=S(=O)(Nc1ncc(Br)nc1OCc1cccnc1)c1cccc(Cl)c1Cl [Example 34, N-[5-Bromo-3-(3-pyridinylmethoxy)-2-pyrazinyl]-2,3-dichlorobenzenesulphonamide]
208 to 209	O=S(=O)(Nc1ncc(Br)nc1OCc1cncnc1)c1cccc(Cl)c1Cl [Example 35, N-[5-Bromo-3-(5-pyrimidinylmethoxy)-2-pyrazinyl]-2,3-dichlorobenzenesulphonamide]
200 to 204	O=S(=O)(Nc1ncc(Cl)nc1OCc1cccnc1)c1cccc(Cl)c1Cl [Example 36, N-[5-Chloro-3-(3-pyridinylmethoxy)-2-pyrazinyl]-2,3-dichlorobenzenesulphonamide]
